# Laboratory results as given in patent EP4549436A1, “NOVEL INDENONE DERIVATIVES AND USES THEREOF” (Amyloid Solution Inc., priority 2022, dated 2024).
# Tests used:
# Aβ1-42 = experiment: Amyloid-beta (Aβ) disaggregation test by thioflavin-T assay; format: biochemical; details: 50 µM Aβ1-42 aggregated 24 hours at 37 °C, then compound 0-500 µM for 48 hours; concentration disaggregating 50 % compared to the control
# Method: (§1) Each compound was dissolved in DMSO to a concentration of 10 mM. Subsequently, the compound was diluted with 6 % DMSO (in DW) and used.
# (§2) Specifically, amyloid-beta and tau solutions were prepared by dissolving Aβ1-42 or Tau-RD3 (Tau repeat domain 3) monomer in DMSO to a concentration of 10 mM. Thereafter, each solution was diluted with DW to a concentration of 100 µM and stored on ice. Meanwhile, thioflavin-T was dissolved in 50 mM glycine buffer (pH 8.5) to a concentration of 5 mM. Thereafter, the resulting solution was diluted with 50 mM glycine buffer (pH 8.5) to a concentration of 5 µM and stored in a dark room while light was blocked.
# (§3) Each of the amyloid-beta and tau solutions prepared according to Experimental Example 1.1 was added to a 1.5 mL microcentrifuge tube to a concentration of 50 µM or 35 µM, and then a reaction was allowed to occur therebetween at 37 °C for 24 hours. Each of the 1.5 mL microcentrifuge tubes in which amyloid-beta aggregation and tau aggregation had been completed was treated with each compound at a concentrated of 500 µM to 0 µM through serial dilution, and then a further reaction was allowed to occur therebetween at 37 °C for 48 hours. 25 µL of the reaction solution in which the reaction had been completed was added to each well of a 96-well plate for fluorescence analysis, and 75µL of the previously prepared thioflavin-T solution was added to each well. After a reaction was allowed to occur at room temperature in the dark for 5 minutes, fluorescence values were measured at excitation 450 nm and emission 485 nm by using a multi-mode microplate reader.
# (§4) The fluorescence value of a group (control) treated with amyloid-beta or tau alone, followed by aggregation for 72 hours was converted into a percentage value and expressed as 100, and amyloid-beta and tau aggregates, in which aggregation had been completed upon reaction for 24 hours, were treated with each compound at each concentration and a further reaction was allowed to occur therebetween for 48 hours, and then fluorescence values thereof were measured and converted into relative values. […]
# [1] = test system: Tau-RD3 (Tau repeat domain 3); experiment: Tau disaggregation test by thioflavin-T assay; format: biochemical; details: 35 µM Tau-RD3 aggregated 24 hours at 37 °C, then compound 0-500 µM for 48 hours; concentration disaggregating 50 % compared to the control
# Method: as §1, §2, §3, §4
Substance,EC50 (Aβ1-42) [µM],EC50 [1] [µM]
2-(4-methoxyphenyl)-3-(5-methylthiazol-4-yl)-6-(2-phenoxyethoxy)-1H-inden-1-one [Compound 21],5.2,173
6-(3-phenylpropoxy)-3-(1H-pyrazol-3-yl)-2-(pyridin-3-yl)-1H-inden-1-one [Compound 7],194,133
6-(2-(4-methoxyphenoxy)ethoxy)-3-(5-methylthiazol-4-yl)-2-(4-(trifluoromethyl)phenyl)-1H-inden-1-one [Compound 32],161,> 500
